Patent publication US20250320190A1, “Novel Inhibitors of Leucine Carboxyl Methyltransferase-1 (LCMT-1) and Methods of Use Thereof” (Temple University-Of The Commonwealth System of Higher …, priority 2024, published 2025)

Key:
[1] = system: MDA-MB-231 cells transfected with the LCMT-1 expression vector; assay: Cytotoxicity assay in LCMT-1-transfected cells; format: cell-based, human; conditions: MDA-MB-231 transfected with LCMT-1 vector
Protocol: MDA-MB-231 cells were also transfected with the LCMT-1 expression vector using Lipofectamine 3000 transfection reagent (Thermo Fisher Scientific, Waltham, Massachusetts) according to the manufacturer's transfection protocol for MDA-MB-231 cells. After 5 hours the medium was changed. The cells were split 1:100 the following day, and 2 days after transfection, selection with G418 sulfate (Mediatech, Herndon, Virginia) at […] for 2 weeks commenced to develop stably transfected cells. After the selection process, cells were used in Compound 2 cytotoxicity assays as previously described.

MCF7 cells [2] = assay: Colony forming assay; format: cell-based, human; conditions: 50-3.25 μM, one week
Protocol: MCF7, MDA-MB-231 and Rosi cells were seeded in 96-well tissue culture plates (Celltreat, Pepperell, Massachusetts) at a density of 90 cells per well (Mayr et al. Int J Mol Sci. 2018; 19(3)). After 24 hours, the media were changed to media containing LB-100 or Compound 2 at various concentrations (50-3.25 μM). Control cells were given fresh media. After one week the media were aspirated and the wells were washed with PBS. Cells were stained with crystal violet solution (0.25 g crystal violet in 20% methanol) for 10 minutes. The wells were washed 6 times with PBS to remove excess crystal violet. Colonies were counted with an ECHO Revolve hybrid microscope at 1.5× magnification. There were ten replicates for each condition.

Plasma stability = format: in vitro ADME; conditions: mouse plasma; read-out: Plasma Stability (t1/2)
Description: There is no cause for concern at this stage since there are multiple strategies and reagents for enhancing aqueous solubility for animal in vivo studies (Savjani, K. T., A. K. Gajjar and J. K. Savjani, 2012, ISRN Pharm 2012: 195727.). […] While target tissue exposure is dependent on free, unbound fractions in the plasma, plasma protein binding can protect compounds from hepatic metabolism. Thus, in vivo metabolism and excretion are often determined by a balance between these two properties. In vivo half-life is a complicated property impacted upon by multiple factors and is difficult to predict. […] While these numbers are somewhat low for a drug candidate, they are acceptable for proof of concept tool molecules which can be given multiple times per day and at higher doses to saturate metabolism.

501-MEL cells = assay: Cytotoxicity assay (CellTiter 96 AQeous); format: cell-based; conditions: Homo sapiens, 48 hours
Protocol: (§1) MCF7, MDA-MB-231, 501-MEL, Rosi, A549, SCC-15, SCC-25, UM-SCC-12, UM-SCC-14a, UM-SCC-49 and UM-SCC69 cells were seeded in 96-well tissue culture plates (Corning, New York) at a density of 2.5×10^3 cells/well. After 24 hours, the media were changed to media with LCMT-li (ChemSpace, Monmouth Junction, New Jersey) at various concentrations (0.78-200 μM). Control cells were given fresh media. After 48 hours cell viability was assessed using CellTiter 96® AQeous Non-Radioactive Cell Proliferation Assays (Promega Corporation, Madison Wisconsin). Plates were read after 4 hours with a GloMax® Discover plate reader (Promega Corporation, Madison Wisconsin). The cytotoxicity assays were performed at least twice, each time with eight replicates per condition.
(§2) Statistical analyses were performed with GraphPad Prism software (version 10.4.1). Effective concentrations that inhibited 50% of cells (EC50, log agonist versus response) were estimated with nonlinear fit curves. Absorbance values for cytotoxity assays and relative densities for Western blot assays were compared using Kruskal-Wallis analyses of variance with Dunn's correction for multiple comparisons. For flow cytometric analyses, two-way analyses of variance with Tukey's correction for multiple comparisons were used.

A549 cells = assay: Cytotoxicity assay (CellTiter 96 AQeous); format: cell-based; conditions: Homo sapiens, 48 hours
Protocol: as §1, §2

MCF7 cells [3] = assay: Cytotoxicity assay (CellTiter 96 AQeous); format: cell-based; conditions: Homo sapiens, 48 hours
Protocol: as §1, §2

MDA-MB-231 cells = assay: Cytotoxicity assay (CellTiter 96 AQeous); format: cell-based; conditions: Homo sapiens, 48 hours
Protocol: as §1, §2

Rosi cells = assay: Cytotoxicity assay (CellTiter 96 AQeous); format: cell-based; conditions: Homo sapiens, 48 hours
Protocol: as §1, §2

SCC-15 cells = assay: Cytotoxicity assay (CellTiter 96 AQeous); format: cell-based; conditions: Homo sapiens, 48 hours
Protocol: as §1, §2

UM-SCC-12 cells [4] = assay: Cytotoxicity assay (CellTiter 96 AQeous); format: cell-based; conditions: Homo sapiens, 48 hours
Protocol: as §1, §2

UM-SCC-14a cells [5] = assay: Cytotoxicity assay (CellTiter 96 AQeous); format: cell-based; conditions: Homo sapiens, UMSCC14A, 48 hours
Protocol: as §1, §2

UM-SCC-49 cells [6] = assay: Cytotoxicity assay (CellTiter 96 AQeous); format: cell-based; conditions: Homo sapiens, 48 hours
Protocol: as §1, §2

UM-SCC-69 cells [7] = assay: Cytotoxicity assay (CellTiter 96 AQeous); format: cell-based; conditions: Homo sapiens, 48 hours
Protocol: as §1, §2

Jurkat cells = assay: Radiosensitization assay (Ghost Dye 710 flow cytometry); format: cell-based, human; conditions: 10 Grays
Protocol: (§3) Jurkat and THP-1 cells were seeded in 6-well plates as described. After 24 hours LCMT-li was added at various concentrations as described. After 3 hours, cells were irradiated at 10 Grays. After 24 hours, cell viability was assessed with Ghost Dye™ 710 staining and flow cytometry as described.

THP-1 cells = assay: as above; format: cell-based, human; conditions: 10 Grays
Protocol: as §3

SCC-25 cells = assay: DDR analysis (activated γ-H2AX flow cytometry); format: cell-based, human; conditions: LCMT-li alone vs control cells, 24 hours
Protocol: (§4) Cells were treated with LCMT-li, radiotherapy or both as described for Annexin V assays. After 24 hours, cells were lifted with 0.25% trypsin, 2.21 mM EDTA, stained with Ghost Dye™ 710 and fixed with formaldehyde as described. Cells were washed with PBS with 1% BSA, and permeabilized with PBS with 0.1% Triton X-100 on ice for 10 minutes. Cells were pelleted and washed twice with PBS with 0.02% Triton X-100. Cells were resuspended in PBS with 1% BSA and 0.3% Tween-20, and stained with FITC-anti-activated-γ-H2AX (Biolegend, catalog #613404). Cells were pelleted and washed with PBS with 1% BSA and 0.1% sodium azide. DDR analyses were performed twice with 12 replicates, 104 cells/replicate.

UM-SCC-12 cells [8] = assay: DDR analysis (activated γ-H2AX flow cytometry); format: cell-based, human; conditions: LCMT-li alone vs control cells, 24 hours
Protocol: as §4

UM-SCC-14a cells [9] = assay: DDR analysis (activated γ-H2AX flow cytometry); format: cell-based, human; conditions: LCMT-li alone vs control cells, 24 hours
Protocol: as §4

UM-SCC-49 cells [10] = assay: DDR analysis (activated γ-H2AX flow cytometry); format: cell-based, human; conditions: LCMT-li alone vs control cells, 24 hours
Protocol: as §4

UM-SCC-69 cells [11] = assay: DDR analysis (activated γ-H2AX flow cytometry); format: cell-based, human
Protocol: as §4

In the case of COC(=O)c1c(NC(=O)c2ccccc2C)sc(C(=O)Nc2cccc(C)c2)c1C [Compound 2, methyl 4-methyl-2-[(2-methylbenzoyl)amino]-5-[[(3-methylphenyl)amino]carbonyl]-3-thiophenecarboxylate], the “effect of LCMT-1 overexpression on Compound 2-mediated cell death” value [1] is reported as “induced resistance to Compound 2-mediated cell death”, the clonogenic colony formation (MCF7 cells [2]) is reported as “inhibited to a lesser extent” and the half-life (Plasma stability) is reported as greater than 3 h. The EC50 (501-MEL cells) was 60.6 µM, the EC50 (A549 cells) was 41.4 µM and the EC50 (MCF7 cells [3]) was 2.24 µM. It also gave an EC50 (MDA-MB-231 cells) of 3.89 µM, an EC50 (Rosi cells) of 3.16 µM and an EC50 (SCC-15 cells) of 4.26 µM. The EC50 (UM-SCC-12 cells [4]) was 209 µM, the EC50 (UM-SCC-14a cells [5]) was 26.4 µM and the EC50 (UM-SCC-49 cells [6]) was 4.95 µM. For the same compound, the EC50 (UM-SCC-69 cells [7]) was 2.49 µM, the radiosensitization (Jurkat cells) was “did not demonstrate radiosensitization” and the radiosensitization (THP-1 cells) was “demonstrated LCMT-li radiosensitization”. For the same compound, the “activated γ-H2AX expression” value (SCC-25 cells) was “increased activated γ-H2AX expression”, the “activated γ-H2AX expression” value (UM-SCC-12 cells [8]) was “decreased activated γ-H2AX expression” and the “activated γ-H2AX expression” value (UM-SCC-14a cells [9]) was “decreased activated γ-H2AX expression”. For the same compound, the “activated γ-H2AX expression” value (UM-SCC-49 cells [10]) was “decreased activated γ-H2AX expression”, the “activated γ-H2AX expression” value (UM-SCC-69 cells [11]; LCMT-li alone vs control cells, 24 hours) was “decreased activated γ-H2AX expression” and the “DDR (activated γ-H2AX expression)” value (UM-SCC-69 cells [11]; in the presence of irradiation) was “inhibited DDR as evidenced by persistent activated γ-H2AX expression”.
